Reference: patent publication US5593984A, “Cephalosporin derivatives” (Yuhan Corporation, priority 1992, dated 1997)
Converted amounts (≈) assume the structure as drawn.

Key:
Type in all cases: cell-based
Staph. aureus ATCC 6538P = assay: MIC by agar dilution, Staph. aureus ATCC 6538P; details: Staphylococcus aureus, ATCC6538P, 17 h; Staph. aureus ATCC 6538P; agar dilution, Mueller-Hinton agar; read-out: Minimal Inhibitory Concentration (MIC)
Summary of the method: (§1)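 Agar incorporation method in Mueller-Hinton medium, compound in two-fold series; 10^6 CFU/ml spots; read after 17±1 h, 35°-37° C.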

Staph. aureus C-57 = assay: MIC by agar dilution, Staph. aureus C-57; details: Staphylococcus aureus, C57, 17 h, Mueller-Hinton agar, read-out: Minimal Inhibitory Concentration (MIC)
Summary of the method: as §1

K. pneumoniae NCTC 9632 = assay: MIC by agar dilution, K. pneumoniae NCTC 9632; details: Klebsiella pneumoniae, NCTC9632, 17 h; K. pneumoniae NCTC 9632; agar dilution, Mueller-Hinton agar; read-out: Minimal Inhibitory Concentration (MIC)
Summary of the method: as §1

[1] = system: Ser. marcescens IFO 12648; assay: MIC by agar dilution, Ser. marcescens IFO 12648; details: Serratia marcescens, IFO12648, 17 h; Ser. marcescens IFO 12648; agar dilution, Mueller-Hinton agar; read-out: Minimal Inhibitory Concentration (MIC)
Summary of the method: as §1

Prov. stuartii IFO 12930 = assay: MIC by agar dilution, Prov. stuartii IFO 12930; details: Providencia stuartii, IFO12930, 17 h, Mueller-Hinton agar, read-out: Minimal Inhibitory Concentration (MIC)
Summary of the method: as §1

Staph. aureus C-5216 = assay: MIC by agar dilution, Staph. aureus C-5216; details: Staphylococcus aureus, C5216, 17 h, Mueller-Hinton agar, read-out: Minimal Inhibitory Concentration (MIC)
Summary of the method: as §1

B. subtilis ATCC 6633 = assay: MIC by agar dilution, B. subtilis ATCC 6633; details: Bacillus subtilis, ATCC6633, 17 h; B. subtilis ATCC 6633; agar dilution, Mueller-Hinton agar; read-out: Minimal Inhibitory Concentration (MIC)
Summary of the method: as §1

[2] = system: S. epidermidis ATCC 12228; assay: MIC by agar dilution, S. epidermidis ATCC 12228; details: Staphylococcus epidermidis, ATCC12228, 17 h; S. epidermidis ATCC 12228; agar dilution, Mueller-Hinton agar; read-out: Minimal Inhibitory Concentration (MIC)
Summary of the method: as §1

Ent. cloacae IFO 13535 = assay: MIC by agar dilution, Ent. cloacae IFO 13535; details: Enterobacter cloacae, IFO13535, 17 h; Ent. cloacae IFO 13535; agar dilution, Mueller-Hinton agar; read-out: Minimal Inhibitory Concentration (MIC)
Summary of the method: as §1

E. coli DY-1 = assay: MIC by agar dilution, E. coli DY-1; details: Escherichia coli, DY1, 17 h; E. coli DY-1; agar dilution, Mueller-Hinton agar; read-out: Minimal Inhibitory Concentration (MIC)
Summary of the method: as §1

Staph. aureus Smith = assay: MIC by agar dilution, Staph. aureus Smith; details: Staphylococcus aureus, 17 h, Mueller-Hinton agar, read-out: Minimal Inhibitory Concentration (MIC)
Summary of the method: as §1

M. morganii DY-1 = assay: MIC by agar dilution, M. morganii DY-1; details: Morganella morganii, DY1, 17 h; M. morganii DY-1; agar dilution, Mueller-Hinton agar; read-out: Minimal Inhibitory Concentration (MIC)
Summary of the method: as §1

Staph. aureus C-5113 = assay: MIC by agar dilution, Staph. aureus C-5113; details: Staphylococcus aureus, C5113, 17 h, Mueller-Hinton agar, read-out: Minimal Inhibitory Concentration (MIC)
Summary of the method: as §1

[3] = system: Ps. aeruginosa ATCC 10145; assay: MIC by agar dilution, Ps. aeruginosa ATCC 10145; details: Pseudomonas aeruginosa, ATCC10145, 17 h, Mueller-Hinton agar, read-out: Minimal Inhibitory Concentration (MIC)
Summary of the method: as §1

Ps. aeruginosa DY-2 = assay: MIC by agar dilution, Ps. aeruginosa DY-2; details: Pseudomonas aeruginosa, DY2, 17 h; Ps. aeruginosa DY-2; agar dilution, Mueller-Hinton agar; read-out: Minimal Inhibitory Concentration (MIC)
Summary of the method: as §1

Ent. aerogenes IFO 12979 = assay: MIC by agar dilution, Ent. aerogenes IFO 12979; details: Klebsiella aerogenes, IFO12979, 17 h, Mueller-Hinton agar, read-out: Minimal Inhibitory Concentration (MIC)
Summary of the method: as §1

E. coli No. 29 = assay: MIC by agar dilution, E. coli No. 29; details: Escherichia coli, 17 h; E. coli No. 29; agar dilution, Mueller-Hinton agar; read-out: Minimal Inhibitory Concentration (MIC)
Summary of the method: as §1

[4] = system: Ps. aeruginosa NCTC 10490; assay: MIC by agar dilution, Ps. aeruginosa NCTC 10490; details: Pseudomonas aeruginosa, NCTC10490, 17 h, Mueller-Hinton agar, read-out: Minimal Inhibitory Concentration (MIC)
Summary of the method: as §1

E. coli NIHJ JC-2 = assay: MIC by agar dilution, E. coli NIHJ JC-2; details: Escherichia coli, NIHJJC2, 17 h; E. coli NIHJ JC-2; agar dilution, Mueller-Hinton agar; read-out: Minimal Inhibitory Concentration (MIC)
Summary of the method: as §1

P. vulgaris NCTC 8313 = assay: MIC by agar dilution, P. vulgaris NCTC 8313; details: Proteus vulgaris, NCTC8313, 17 h; P. vulgaris NCTC 8313; agar dilution, Mueller-Hinton agar; read-out: Minimal Inhibitory Concentration (MIC)
Summary of the method: as §1

MIC (Staph. aureus ATCC 6538P) [µg/mL] | MIC (Staph. aureus C-57) [µg/mL] | MIC (K. pneumoniae NCTC 9632) [µg/mL] | MIC [1] [µg/mL] | MIC (Prov. stuartii IFO 12930) [µg/mL] | MIC (Staph. aureus C-5216) [µg/mL] | MIC (B. subtilis ATCC 6633) [µg/mL] | MIC [2] [µg/mL] | MIC (Ent. cloacae IFO 13535) [µg/mL] | MIC (E. coli DY-1) [ng/mL] | MIC (Staph. aureus Smith) [µg/mL] | MIC (M. morganii DY-1) [µg/mL] | MIC (Staph. aureus C-5113) [µg/mL] | MIC [3] [µg/mL] | MIC (Ps. aeruginosa DY-2) [µg/mL] | MIC (Ent. aerogenes IFO 12979) [µg/mL] | MIC (E. coli No. 29) [µg/mL] | MIC [4] [µg/mL] | MIC (E. coli NIHJ JC-2) [µg/mL] | MIC (P. vulgaris NCTC 8313) [µg/mL] | Compound
0.1 (≈ 0.185 µM) | 25 (≈ 46.2 µM) | 0.012 (≈ 0.0222 µM) | 0.012 (≈ 0.0222 µM) | 0.012 (≈ 0.0222 µM) | 0.78 (≈ 1.44 µM) | 0.2 (≈ 0.369 µM) | 0.2 (≈ 0.369 µM) | 0.2 (≈ 0.369 µM) | ≤ 6 | 0.2 (≈ 0.369 µM) | 0.025 (≈ 0.0462 µM) | 1.56 (≈ 2.88 µM) | 3.13 (≈ 5.78 µM) | 6.25 (≈ 11.5 µM) | 0.012 (≈ 0.0222 µM) | ≤ 0.006 | 0.78 (≈ 1.44 µM) | 0.012 (≈ 0.0222 µM) | 0.012 (≈ 0.0222 µM) | CCc1c[n+](CC2=C(C(=O)[O-])N3C(=O)[C@@H](NC(=O)/C(=N\OC)c4csc(N)n4)[C@H]3SC2)cc2cccn12 [Ex. 37, 7-β-[(Z)-2-(2-aminothiazol-4-yl)-2-methoxyiminoacetamido]-3-(4-ethylpyrrolo[1,2-a]pyrazinium-2-yl)methyl-3-cephem-4-carboxylate]
0.39 (≈ 0.716 µM) | 12.5 (≈ 23 µM) | 0.012 (≈ 0.022 µM) | 0.012 (≈ 0.022 µM) | ≤ 0.006 | 0.78 (≈ 1.43 µM) | 0.1 (≈ 0.184 µM) | 0.05 (≈ 0.0918 µM) | 0.05 (≈ 0.0918 µM) | ≤ 6 | 0.78 (≈ 1.43 µM) | 0.012 (≈ 0.022 µM) | 1.56 (≈ 2.86 µM) | 0.78 (≈ 1.43 µM) | 1.56 (≈ 2.86 µM) | ≤ 0.006 | ≤ 0.006 | 0.1 (≈ 0.184 µM) | ≤ 0.006 | 0.012 (≈ 0.022 µM) | CO/N=C(\C(=O)N[C@@H]1C(=O)N2C(C(=O)[O-])=C(C[n+]3ccn4c(CO)ccc4c3)CS[C@H]12)c1nsc(N)n1 [Ex. 50, 7-β-[(Z)-2-(5-amino-1,2,4-thiadiazol-3-yl)-2-methoxyiminoacetamido]-3-(6-hydroxymethylpyrrolo[1,2-a]-pyrazinium-2-yl)methyl-3-cephem-4-carboxylate]
0.05 (≈ 0.0912 µM) | 1.56 (≈ 2.85 µM) | 0.05 (≈ 0.0912 µM) | 0.1 (≈ 0.182 µM) | 0.025 (≈ 0.0456 µM) | 0.2 (≈ 0.365 µM) | 0.025 (≈ 0.0456 µM) | 0.025 (≈ 0.0456 µM) | 0.39 (≈ 0.712 µM) | 12 (≈ 0.0219 µM) | 0.2 (≈ 0.365 µM) | 0.05 (≈ 0.0912 µM) | 0.2 (≈ 0.365 µM) | 0.78 (≈ 1.42 µM) | 3.13 (≈ 5.71 µM) | 0.012 (≈ 0.0219 µM) | 0.05 (≈ 0.0912 µM) | 0.05 (≈ 0.0912 µM) | 0.1 (≈ 0.182 µM) | ≤ 0.006 | CO/N=C(\C(=O)N[C@@H]1C(=O)N2C(C(=O)[O-])=C(C[n+]3ccn4cccc4c3)CS[C@H]12)c1nc(N)sc1Cl [Ex. 47, 7-β-[(Z)-2-(2-amino-5-chlorothiazol-4-yl)-2-methoxyiminoacetamido]-3-(pyrrolo[1,2-a]pyrazinium-2-yl)methyl-3-cephem-4-carboxylate]
